In ChEMBL document CHEMBL2375306, “Antimicrobial peptides containing unnatural amino acid exhibit potent bactericidal activity against ESKAPE pathogens” (Bioorg Med Chem, 2013):
In brackets after ≈: the same amount, converted by molar mass. Numbered stars: 1 amine (or outer) side, 2 acyl side, 3 side chain; on linkers, the order of the positions; unused ones are H or OH. Square brackets hold non-standard residues; d marks the D form. Peptide text beside a SMILES is read from it. * marks the point of attachment. ξ: configuration not given here. X2 = NCCCC[C@H](NC(=O)[C@H](CCCCN)NC(=O)[C@H](CCCCN)NC(=O)[C@H](CCCCN)NCCCCCC(=O)[C@@H]1Cc2ccccc2CN1*)C(N)=O; X3 = NCCCC[C@H](NC(=O)[C@H](CCCCN)NC(=O)[C@H](CCCCN)NC(=O)[C@H](CCCCN)NCCCC(=O)[C@@H]1Cc2ccccc2CN1*)C(N)=O; X6 = NCCCC[C@H](NC(=O)[C@H](CCCCN)NC(=O)[C@H](CCCCN)NC(=O)[C@H](CCCCN)NCCC(=O)[C@@H]1Cc2ccccc2CN1*)C(N)=O; Pro(3ξ,4ξ-(CH2)4) = O=C(O)[C@H]1NCC2CCCCC21; Ethylenediamine = C(CN[*:2])N[*:1]; Tic = O=C(O)[C@@H]1Cc2ccccc2CN1

Columns and labels:
Type in all cases: functional
Staphylococcus aureus = test: Antibacterial activity against methicillin-sensitive Staphylococcus aureus UAMS-1 after 24 hrs by broth microdilution method; conditions: UAMS-1, 24 h
Enterococcus faecium = test: Antibacterial activity against Enterococcus faecium MMC4 after 24 hrs by broth microdilution method; conditions: MMC4, 24 h
Acinetobacter baumannii = test: Antibacterial activity against Acinetobacter baumannii WRAIR clinical isolate 13 after 24 hrs by broth microdilution method; conditions: WRAIR clinical isolate 13, 24 h
Pseudomonas aeruginosa = test: Antibacterial activity against Pseudomonas aeruginosa PAO1 after 24 hrs by broth microdilution method; conditions: PAO1, 24 h
Klebsiella aerogenes = test: Antibacterial activity against Enterobacter aerogenes after 24 hrs by broth microdilution method
Klebsiella pneumoniae = test: Antibacterial activity against Klebsiella pneumoniae BAMS clinical isolate 07-18 after 24 hrs by broth microdilution method; conditions: BAMS clinical isolate 07-18, 24 h

Row | Structure (SMILES) | MBC (Staphylococcus aureus) [mg/L] | MIC (Staphylococcus aureus) [mg/L] | MBC (Enterococcus faecium) [mg/L] | MIC (Enterococcus faecium) [mg/L] | MBC (Acinetobacter baumannii) [mg/L] | MIC (Acinetobacter baumannii) [mg/L] | MBC (Pseudomonas aeruginosa) [mg/L] | MIC (Pseudomonas aeruginosa) [mg/L] | MBC (Klebsiella aerogenes) [mg/L] | MIC (Klebsiella aerogenes) [mg/L] | MBC (Klebsiella pneumoniae) [mg/L] | MIC (Klebsiella pneumoniae) [mg/L]
1 | CC(=O)NCC(=O)N[C@@H](Cc1ccccc1)C(=O)N1Cc2ccccc2C[C@H]1C(=O)N1CC2CCCCC2[C@H]1C(=O)NCC(=O)N[C@@H](CC(=O)O)C(=O)N[C@@H](CCCCN)C(=O)N1Cc2ccccc2C[C@H]1C(=O)N1CC2CCCCC2[C@H]1C(=O)NCC(=O)N[C@@H](Cc1ccccc1)C(=O)N1Cc2ccccc2C[C@H]1C(=O)N1CC2CCCCC2[C@H]1C(=O)NCC(=O)N[C@@H](CC(=O)O)C(=O)N[C@@H](CCCCN)C(=O)N1Cc2ccccc2C[C@H]1C(=O)N[C@@H](CCCCN)C(=O)N[C@@H](CCCCN)C(=O)N[C@@H](CCCCN)C(=O)N[C@@H](CCCCN)C(N)=O (stereo partly specified) (Ac-GF[Tic][Pro(3ξ,4ξ-(CH2)4)]GDK[Tic][Pro(3ξ,4ξ-(CH2)4)]GF[Tic][Pro(3ξ,4ξ-(CH2)4)]GDK[Tic]KKKK-NH2) | > 100 | > 100 | 50 (≈ 18.7 µM) | 12.5 (≈ 4.68 µM) | 25 (≈ 9.36 µM) | 12.5 (≈ 4.68 µM) | > 100 | > 100 | > 100 | > 100 | 100 (≈ 37.4 µM) | 100 (≈ 37.4 µM)
2 | CC(=O)NCC(=O)N[C@@H](Cc1ccccc1)C(=O)N1Cc2ccccc2C[C@H]1C(=O)N1CC2CCCCC2[C@H]1C(=O)NCC(=O)N[C@@H](CCCCN)C(=O)N1Cc2ccccc2C[C@H]1C(=O)N1CC2CCCCC2[C@H]1C(=O)NCC(=O)N[C@@H](Cc1ccccc1)C(=O)N1Cc2ccccc2C[C@H]1C(=O)N1CC2CCCCC2[C@H]1C(=O)NCC(=O)N[C@@H](CCCCN)C(=O)N1Cc2ccccc2C[C@H]1C(=O)CCCCCN[C@@H](CCCCN)C(=O)N[C@@H](CCCCN)C(=O)N[C@@H](CCCCN)C(=O)N[C@@H](CCCCN)C(N)=O (stereo partly specified) (Ac-GF[Tic][Pro(3ξ,4ξ-(CH2)4)]GK[Tic][Pro(3ξ,4ξ-(CH2)4)]GF[Tic][Pro(3ξ,4ξ-(CH2)4)]GK-X2) | > 100 | 100 (≈ 39.8 µM) | > 100 | 25 (≈ 9.96 µM) | 25 (≈ 9.96 µM) | 12.5 (≈ 4.98 µM) | > 100 | 100 (≈ 39.8 µM) | > 100 | 100 (≈ 39.8 µM) | 100 (≈ 39.8 µM) | 100 (≈ 39.8 µM)
3 | CC(=O)NCC(=O)N[C@@H](Cc1ccccc1)C(=O)N1Cc2ccccc2C[C@H]1C(=O)N1CC2CCCCC2[C@H]1C(=O)NCC(=O)N[C@@H](CCCCN)C(=O)N1Cc2ccccc2C[C@H]1C(=O)N1CC2CCCCC2[C@H]1C(=O)NCC(=O)N[C@@H](Cc1ccccc1)C(=O)N1Cc2ccccc2C[C@H]1C(=O)N1CC2CCCCC2[C@H]1C(=O)NCC(=O)N[C@@H](CCCCN)C(=O)N1Cc2ccccc2C[C@H]1C(=O)CCCN[C@@H](CCCCN)C(=O)N[C@@H](CCCCN)C(=O)N[C@@H](CCCCN)C(=O)N[C@@H](CCCCN)C(N)=O (stereo partly specified) (Ac-GF[Tic][Pro(3ξ,4ξ-(CH2)4)]GK[Tic][Pro(3ξ,4ξ-(CH2)4)]GF[Tic][Pro(3ξ,4ξ-(CH2)4)]GK-X3) | > 100 | > 100 | > 100 | 50 (≈ 20.1 µM) | 50 (≈ 20.1 µM) | 12.5 (≈ 5.03 µM) | > 100 | > 100 | > 100 | > 100 | > 100 | > 100
4 | CC(=O)NCC(=O)N[C@@H](Cc1ccccc1)C(=O)N1Cc2ccccc2C[C@H]1C(=O)N1CC2CCCCC2[C@H]1C(=O)NCC(=O)N[C@@H](CCCCN)C(=O)N1Cc2ccccc2C[C@H]1C(=O)N1CC2CCCCC2[C@H]1C(=O)NCC(=O)N[C@@H](Cc1ccccc1)C(=O)N1Cc2ccccc2C[C@H]1C(=O)N1CC2CCCCC2[C@H]1C(=O)NCC(=O)N[C@@H](CCCCN)C(=O)N1Cc2ccccc2C[C@H]1C(=O)CCN[C@@H](CCCCN)C(=O)N[C@@H](CCCCN)C(=O)N[C@@H](CCCCN)C(=O)N[C@@H](CCCCN)C(N)=O (stereo partly specified) (Ac-GF[Tic][Pro(3ξ,4ξ-(CH2)4)]GK[Tic][Pro(3ξ,4ξ-(CH2)4)]GF[Tic][Pro(3ξ,4ξ-(CH2)4)]GK-X6) | > 100 | > 100 | 50 (≈ 20.3 µM) | 12.5 (≈ 5.06 µM) | 25 (≈ 10.1 µM) | 12.5 (≈ 5.06 µM) | > 100 | > 100 | > 100 | > 100 | > 100 | > 100
5 | CC(=O)NCC(=O)N[C@@H](Cc1ccccc1)C(=O)N1Cc2ccccc2C[C@H]1C(=O)N1CC2CCCCC2[C@H]1C(=O)NCC(=O)N[C@@H](CCCCN)C(=O)N1Cc2ccccc2C[C@H]1C(=O)N1CC2CCCCC2[C@H]1C(=O)NCC(=O)N[C@@H](Cc1ccccc1)C(=O)N1Cc2ccccc2C[C@H]1C(=O)N1CC2CCCCC2[C@H]1C(=O)NCC(=O)N[C@@H](CCCCN)C(=O)N1Cc2ccccc2C[C@H]1C(=O)N[C@@H](CCCCN)C(=O)N[C@@H](CCCCN)C(=O)N[C@@H](CCCCN)C(N)=O (stereo partly specified) (Ac-GF[Tic][Pro(3ξ,4ξ-(CH2)4)]GK[Tic][Pro(3ξ,4ξ-(CH2)4)]GF[Tic][Pro(3ξ,4ξ-(CH2)4)]GK[Tic]KKK-NH2) | > 100 | 100 (≈ 43.2 µM) | 100 (≈ 43.2 µM) | 25 (≈ 10.8 µM) | 50 (≈ 21.6 µM) | 12.5 (≈ 5.4 µM) | > 100 | > 100 | > 100 | > 100 | > 100 | 100 (≈ 43.2 µM)
6 | CC(=O)NCC(=O)N[C@@H](Cc1ccccc1)C(=O)N1Cc2ccccc2C[C@H]1C(=O)N1CC2CCCCC2[C@H]1C(=O)NCC(=O)N[C@@H](CCCCN)C(=O)N1Cc2ccccc2C[C@H]1C(=O)N1CC2CCCCC2[C@H]1C(=O)NCC(=O)N[C@@H](Cc1ccccc1)C(=O)N1Cc2ccccc2C[C@H]1C(=O)N1CC2CCCCC2[C@H]1C(=O)NCC(=O)N[C@@H](CCCCN)C(=O)N1Cc2ccccc2C[C@H]1C(=O)N[C@@H](CCCCN)C(=O)N[C@@H](CCCCN)C(=O)N[C@@H](CCCCN)C(=O)N[C@@H](CCCCN)C(=O)NCCN (stereo partly specified) (Ac-GF[Tic][Pro(3ξ,4ξ-(CH2)4)]GK[Tic][Pro(3ξ,4ξ-(CH2)4)]GF[Tic][Pro(3ξ,4ξ-(CH2)4)]GK[Tic]KKKK-Ethylenediamine) | > 100 | 50 (≈ 20.1 µM) | 25 (≈ 10.1 µM) | 12.5 (≈ 5.03 µM) | 6.25 (≈ 2.52 µM) | 6.25 (≈ 2.52 µM) | 100 (≈ 40.3 µM) | 50 (≈ 20.1 µM) | 50 (≈ 20.1 µM) | 50 (≈ 20.1 µM) | 50 (≈ 20.1 µM) | 25 (≈ 10.1 µM)
7 | CC(=O)NCC(=O)N[C@@H](Cc1ccccc1)C(=O)N1Cc2ccccc2C[C@H]1C(=O)N1CC2CCCCC2[C@H]1C(=O)NCC(=O)N[C@@H](CCCCN)C(=O)N1Cc2ccccc2C[C@H]1C(=O)N1CC2CCCCC2[C@H]1C(=O)NCC(=O)N[C@@H](Cc1ccccc1)C(=O)N1Cc2ccccc2C[C@H]1C(=O)N1CC2CCCCC2[C@H]1C(=O)NCC(=O)N[C@@H](CCCCN)C(=O)N1Cc2ccccc2C[C@H]1C(=O)N[C@@H](CCCCN)C(=O)N[C@@H](CCCCN)C(=O)N[C@@H](CCCCN)C(=O)N[C@@H](CCCCN)C(N)=O (stereo partly specified) (Ac-GF[Tic][Pro(3ξ,4ξ-(CH2)4)]GK[Tic][Pro(3ξ,4ξ-(CH2)4)]GF[Tic][Pro(3ξ,4ξ-(CH2)4)]GK[Tic]KKKK-NH2) | > 100 | > 100 | 50 (≈ 20.5 µM) | 25 (≈ 10.2 µM) | 25 (≈ 10.2 µM) | 6.25 (≈ 2.56 µM) | 100 (≈ 41 µM) | 100 (≈ 41 µM) | 100 (≈ 41 µM) | 100 (≈ 41 µM) | 100 (≈ 41 µM) | 100 (≈ 41 µM)
8 | CC(=O)NCC(=O)N[C@@H](Cc1ccccc1)C(=O)N1Cc2ccccc2C[C@H]1C(=O)N1CC2CCCCC2[C@H]1C(=O)NCC(=O)N[C@@H](CCCNC(=N)N)C(=O)N1Cc2ccccc2C[C@H]1C(=O)N1CC2CCCCC2[C@H]1C(=O)NCC(=O)N[C@@H](Cc1ccccc1)C(=O)N1Cc2ccccc2C[C@H]1C(=O)N1CC2CCCCC2[C@H]1C(=O)NCC(=O)N[C@@H](CCCNC(=N)N)C(=O)N1Cc2ccccc2C[C@H]1C(=O)N[C@@H](CCCNC(=N)N)C(=O)N[C@@H](CCCNC(=N)N)C(=O)N[C@@H](CCCNC(=N)N)C(=O)N[C@@H](CCCNC(=N)N)C(N)=O (stereo partly specified) (Ac-GF[Tic][Pro(3ξ,4ξ-(CH2)4)]GR[Tic][Pro(3ξ,4ξ-(CH2)4)]GF[Tic][Pro(3ξ,4ξ-(CH2)4)]GR[Tic]RRRR-NH2) | > 100 | 50 (≈ 19.2 µM) | 25 (≈ 9.58 µM) | 6.25 (≈ 2.4 µM) | 12.5 (≈ 4.79 µM) | 6.25 (≈ 2.4 µM) | > 100 | 100 (≈ 38.3 µM) | 50 (≈ 19.2 µM) | 50 (≈ 19.2 µM) | 100 (≈ 38.3 µM) | 50 (≈ 19.2 µM)
